The source of these data is ChEMBL document CHEMBL3044726, “Synthesis and Acaricidal Activities of New Benzophenone O-Methyloximes” (2001).

Each structure is given as a SMILES string. ≈ marks a conversion by molar mass, not a printed value.

Holding throughout (type): functional
Test [1] relates to Tetranychus urticae. Nature of the test: Acaricidal activity against Tetranychus urticae (two-spotted spider mite) in two-leaf stage of kidney bean leaf surface at 500 ppm after 6 hr relative to control.
For test [2], the system named is Tetranychus urticae. Nature of the test: Acaricidal activity against Tetranychus urticae (two-spotted spider mite) in two-leaf stage of kidney bean leaf surface at 15.6 ppm after 6 hr relative to control.
Test [3] relates to Tetranychus urticae. Description: Acaricidal activity against Tetranychus urticae (two-spotted spider mite) in two-leaf stage of kidney bean leaf surface at 62.5 ppm after 6 hr relative to control.
In test [4] the test system is Tetranychus urticae. Nature of the test: Acaricidal activity against Tetranychus urticae (two-spotted spider mite) in two-leaf stage of kidney bean leaf surface at 250 ppm after 6 hr relative to control.
The next test has as its system Tetranychus kanzawai. Description: Acaricidal activity against Tetranychus kanzawai in kidney bean leaf surface after 48 hr.
The subject of test [5] is Tetranychus urticae. Description: Acaricidal activity against Tetranychus urticae (two-spotted spider mite) in kidney bean leaf surface after 48 hr.

By LC50 is commonly meant the concentration that kills 50% of the test population. The low end stands for a more lethal substance, the high end for a less lethal substance.

In the test on Tetranychus urticae [1], `CO/N=C(/c1ccc(Cl)cc1)c1ccccc1COc1nnc(C(F)(F)F)s1` gave an Activity of 0%.

Consider `CO/N=C(/c1ccc(Cl)cc1)c1ccccc1COc1ncccc1C(F)(F)F`, for which the Activity in the test on Tetranychus urticae [1] came to 0%.

As to `CO/N=C(/c1ccc(Cl)cc1)c1ccccc1COc1ncc(C(F)(F)F)cc1Cl`, the Activity in the test on Tetranychus urticae [1] stood at 0%.

For `CO/N=C(/c1ccccc1)c1ccccc1COc1ccc(C(F)(F)F)cn1`, the Activity in the test with Tetranychus urticae [1] is recorded as 0%.

On to `CON=C(c1ccccc1F)c1ccccc1COc1ccc(C(F)(F)F)cn1`, for which, in the test with Tetranychus urticae [1], the Activity is 0%.

In turn, `CO/N=C(/c1cccc(F)c1)c1ccccc1COc1ccc(C(F)(F)F)cn1` had an Activity in the test on Tetranychus urticae [1] of 70%.

For the compound `CO/N=C(/c1ccc(F)cc1)c1ccccc1COc1ccc(C(F)(F)F)cn1`, the Activity was 0% in the test with Tetranychus urticae [2], 70% in the test on Tetranychus urticae [3], 95% in the test on Tetranychus urticae [4] and 95% in the test on Tetranychus urticae [1].

As for `CO/N=C(/c1ccccc1Cl)c1ccccc1COc1ccc(C(F)(F)F)cn1`, the Activity in the test with Tetranychus urticae [1] came to 0%.

In the test with Tetranychus urticae [1], `CO/N=C(/c1cccc(Cl)c1)c1ccccc1COc1ccc(C(F)(F)F)cn1` returned an Activity of 0%.

`CO/N=C(/c1ccc(C)cc1)c1ccccc1COc1ccc(C(F)(F)F)cn1` showed an Activity with Tetranychus urticae [1] of 0%.

Regarding `CO/N=C(/c1ccc(OC)cc1)c1ccccc1COc1ccc(C(F)(F)F)cn1`, the Activity in the test on Tetranychus urticae [1] was determined as 0%.

Regarding `CO/N=C(/c1ccc(Br)cc1)c1ccccc1COc1ccc(C(F)(F)F)cn1`, the Activity was 70% in the test with Tetranychus urticae [2], 95% with Tetranychus urticae [3], 95% in the test on Tetranychus urticae [4] and 95% in the test on Tetranychus urticae [1].

As for `CO/N=C(/c1ccc(C(F)(F)F)cc1)c1ccccc1COc1ccc(C(F)(F)F)cn1`, the LC50 was found to be 7.2 µg/mL (≈ 15.8 µM) in the test on Tetranychus kanzawai and 24.8 µg/mL (≈ 54.6 µM) with Tetranychus urticae [5]. Further, the Activity turned out to be 70% with Tetranychus urticae [2], 95% in the test on Tetranychus urticae [3], 95% with Tetranychus urticae [4] and 95% in the test on Tetranychus urticae [1].

Turning to `CO/N=C(/c1ccc(OC(F)(F)F)cc1)c1ccccc1COc1ccc(C(F)(F)F)cn1`, the Activity in the test with Tetranychus urticae [2] is on record as 0%; in the test on Tetranychus urticae [3] it was 70%; in the test on Tetranychus urticae [4] it was 70%; in the test on Tetranychus urticae [1], 95%.

`CO/N=C(/c1ccc([N+](=O)[O-])cc1)c1ccccc1COc1ccc(C(F)(F)F)cn1`: the Activity is listed as 0% in the test with Tetranychus urticae [2], 70% in the test with Tetranychus urticae [3], 95% in the test with Tetranychus urticae [4] and 95% with Tetranychus urticae [1].

Turning to `CO/N=C(/c1ccc(C#N)cc1)c1ccccc1COc1ccc(C(F)(F)F)cn1`, the Activity with Tetranychus urticae [2] is on record as 0%; in the test with Tetranychus urticae [3], 70%; with Tetranychus urticae [4], 95%; with Tetranychus urticae [1], 95%.

With `CO/N=C(/c1ccc(-c2ccccc2)cc1)c1ccccc1COc1ccc(C(F)(F)F)cn1`, the Activity with Tetranychus urticae [1] is 0%.

Turning to `CO/N=C(/c1ccc(Oc2ccccc2)cc1)c1ccccc1COc1ccc(C(F)(F)F)cn1`, the Activity with Tetranychus urticae [1] came out at 0%.

Compound `CO/N=C(/c1ccc(Cl)cc1)c1ccccc1COc1ccccc1` registered an Activity in the test on Tetranychus urticae [1] of 0%.

As for `CO/N=C(/c1ccc(Cl)cc1)c1ccccc1COc1ccccc1Cl`, in the test on Tetranychus urticae [1], the Activity amounted to 0%.

The compound `CO/N=C(/c1ccc(Cl)cc1)c1ccccc1COc1cccc(Cl)c1` had an Activity in the test on Tetranychus urticae [1] of 0%.

As for `CO/N=C(/c1ccc(Cl)cc1)c1ccccc1COc1ccc(Cl)cc1`, the Activity in the test on Tetranychus urticae [1] is recorded as 0%.

Turning to `CO/N=C(/c1ccc(Cl)cc1)c1ccccc1COc1ccccc1C(F)(F)F`, the Activity in the test with Tetranychus urticae [1] came to 0%.

Compound `CO/N=C(/c1ccc(Cl)cc1)c1ccccc1COc1cccc(C(F)(F)F)c1` registered an Activity with Tetranychus urticae [1] of 0%.

Regarding `CO/N=C(/c1ccc(Cl)cc1)c1ccccc1COc1ccc(C(F)(F)F)cc1`, the results for the Activity in the test on Tetranychus urticae [3], with Tetranychus urticae [4] and in the test on Tetranychus urticae [1] were 0%, 95% and 95%, respectively.

As to `CO/N=C(/c1ccc(Cl)cc1)c1ccccc1COc1ccc(C)cc1`, in the test on Tetranychus urticae [1], the Activity is given as 0%.

In the case of `CO/N=C(/c1ccc(Cl)cc1)c1ccccc1COc1ccc(C(C)(C)C)cc1`, the Activity with Tetranychus urticae [1] worked out at 0%.

In the case of `CO/N=C(/c1ccc(Cl)cc1)c1ccccc1COc1ccc(OC(F)(F)F)cc1`, the Activity with Tetranychus urticae [1] is 0%.

`CO/N=C(/c1ccc(Cl)cc1)c1ccccc1COc1ccc(-c2ccccc2)cc1`: in the test with Tetranychus urticae [1], the Activity was 0%.

In the case of `CO/N=C(\c1ccc(Cl)cc1)c1ccccc1COc1ccc(C(F)(F)F)cc1`, the Activity was determined as 70% in the test with Tetranychus urticae [4] and 95% in the test on Tetranychus urticae [1].

In the test on Tetranychus urticae [1], `CON=C(c1ccc(Cl)cc1)c1cccc(COc2ccc(C(F)(F)F)cc2)c1` registered an Activity of 0%.

`CON=C(c1ccc(Cl)cc1)c1ccc(COc2ccc(C(F)(F)F)cc2)cc1` came in with an Activity in the test with Tetranychus urticae [1] of 0%.

As for `CO/N=C(\c1ccc(F)cc1)c1ccccc1COc1ccc(C(F)(F)F)cc1`, the Activity in the test with Tetranychus urticae [1] is recorded as 70%.

Take `CO/N=C(/c1ccc(F)cc1)c1ccccc1COc1ccc(C(F)(F)F)cc1`: the values for the Activity in the test with Tetranychus urticae [4] and in the test with Tetranychus urticae [1] were 0% and 95%, respectively.

In the case of `CON=C(c1ccc(F)cc1)c1cccc(COc2ccc(C(F)(F)F)cc2)c1`, the Activity in the test with Tetranychus urticae [1] worked out at 0%.

The compound `CON=C(c1ccc(F)cc1)c1ccc(COc2ccc(C(F)(F)F)cc2)cc1` showed an Activity in the test on Tetranychus urticae [1] of 0%.

Compound `CO/N=C(/c1ccc(Cl)cc1)c1ccccc1Oc1ccc(C(F)(F)F)cc1` displayed an Activity in the test on Tetranychus urticae [1] of 0%.

In the test with Tetranychus urticae [1], `CO/N=C(/c1ccc(Cl)cc1)c1ccccc1OCc1ccc(C(F)(F)F)cc1` yielded an Activity of 0%.

Consider `CO/N=C(/c1ccc(Cl)cc1)c1ccccc1COc1ccc(C(F)(F)F)cn1`, for which the LC50 was 9 µg/mL (≈ 21.4 µM) in the test on Tetranychus kanzawai and 16.4 µg/mL (≈ 39 µM) in the test on Tetranychus urticae [5]. The Activity in the test on Tetranychus urticae [2], with Tetranychus urticae [3], in the test with Tetranychus urticae [4] and in the test with Tetranychus urticae [1] was 95% each time.

Regarding `CC(C)(C)c1ccc(CSc2cnn(C(C)(C)C)c(=O)c2Cl)cc1` [PYRIDABEN], the LC50 came to 33.7 µg/mL (≈ 92.3 µM) in the test with Tetranychus kanzawai and 34.5 µg/mL (≈ 94.5 µM) in the test on Tetranychus urticae [5].
